Assay results from patent US20260217701A1, “SELECTIVE BET INHIBITORS AND USES THEREOF” (Tay Therapeutics Limited, priority 2022, published 2026).
Where “and” joins values, the source holds several entries; their conditions need not be identical. Equal entries are not always repeated. Entries after “also recorded” stand apart in the source; their conditions may differ. Marks after values point to notes of the source that are not given here.

Key:
[1] = tested on: experimental autoimmune encephalomyelitis; experiment: Experimental autoimmune encephalomyelitis (EAE) model: EAE scores, onset, incidence; format: in vivo, C57BI/6 mice
Method: Experimental Method H: EAE in animals treated with a BET inhibitor and vehicle. Animals were assigned to the groups outlined in Table 38.
Compound A may be formulated as illustrated in Experimental Method A (see Table 2E.). A 40 mg/mL stock solution of Compound A in DMSO was prepared and aliquots stored at −20° C. On each day of preparation an e.g., 0.75 mL aliquot of thawed stock was diluted with an equal volume of DMSO. The remaining vehicle components were added to provide the highest dose and then diluted with vehicle to provide lower doses. A 30 mg/mL stock solution of FTY720 in ethanol was prepared and stored at −20° C. Daily, the stock solution was diluted with room temperature water to a final dosing concentration of 0.6 mg/mL. Formulated Compound A, FTY720 and vehicle were each at room temperature for dosing.
Female C57BI/6 mice (9 weeks old) were acclimated for seven days prior to study initiation. On Day-1, animals were assigned to groups in a balanced manner to achieve similar average weights across the different groups. Chronic EAE was induced in female C57BI/6 mice following immunization with an emulsion of MOG35-55/CFA on Day 0, followed by an injection of pertussis toxin two hours after the initial immunization. On Day 1, a second injection of pertussis toxin was administered 24 hours after the initial immunization. Mice were injected subcutaneously at two sites on the back with the MOG35-55/CFA emulsion (Hooke Kit™ MOG35-55/CFA Emulsion PTX). The first injection site was located approximately 1 cm caudal of the neckline (upper back), and the second injection site was approximately 2 cm cranial of the base of the tail (lower back). The injection volume was 0.1 mL for each injection. The pertussis toxin was administered at the described times through intraperitoneal injection at a concentration of 85 ng/dose for both injections.
Body weight was measured three times a week (Monday, Wednesday, and Friday) starting on Day-1. Animals were scored daily for EAE starting on Day 7. In-between scores were assigned when the clinical signs fell between two below defined scores.

renal fibrosis (UUO) = experiment: Unilateral Urethral Obstruction (UUO) model of renal fibrosis: clinical histopathology scores; format: in vivo, rats; parameters: key to Glomerulosclerosis clinical score / Interstitial nephritis clinical score / Collagen fiber deposition clinical score / Nephropathy clinical score: 0=no more or absence; 1=low; 2=moderate; 3=high; 4=severe
Method: Starting on Day 0, animals in group 2 were administered daily doses of the vehicle for 14 days. Starting on Day 0, animals in group 3 were administered daily doses of Compound A (10 mg/kg) for 14 days. A design of the UUO study is depicted in FIG. 24.
Blind clinical nephropathy scores were conducted for all animals in the study. Glomerulosclerosis, interstitial nephritis, collagen fiber deposition, and nephropathy were each assessed for all experimental rats, and a total clinical score was determined for each rat. The scoring system represented the degree or percentage of lesions in the whole kidney. Clinical score assessments were performed on Day 14.

[2] = all animals receiving Compound A
[3] = UUO rats, individual animals 1-8

Cn1cc(-c2ccccc2)c(-c2cn(C)c(=O)c3[nH]c(-c4cnn(C(F)(F)F)c4)cc23)cc1=O [Compound A, 6-methyl-4-(1-methyl-2-oxo-5-phenyl-1,2-dihydropyridin-4-yl)-2-(1-(trifluoromethyl)-1H-pyrazol-4-yl)-1,6-dihydro-7H-pyrrolo[2,3-c]pyridin-7-one]
EAE incidence rate ([1]; 1 mg/kg (lowest dose)): 100% | Mean maximum EAE scores relative to vehicle ([1]; 1 mg/kg, 3 mg/kg and 10 mg/kg): significantly reduced mean maximum scores | EAE incidence rate ([1]; 3 mg/kg): 91.7% | EAE incidence rate ([1]; 10 mg/kg): 83.3% | Incidence of EAE (%) ([1]; Compound A 1 mg/kg (Group 2)): 100% | Mean Day of Onset (SEM) ([1]; Compound A 1 mg/kg (Group 2)): 14.5 (0.9) Day | Mean End Score (SEM) ([1]; Compound A 1 mg/kg (Group 2)): 1.05 (0.35)* | Mean Maximum Score (SEM) ([1]; Compound A 1 mg/kg (Group 2)): 2.18 (0.25)* | Median Day of Onset ([1]; Compound A 1 mg/kg (Group 2)): 13.0 days | Mean EAE score ([1]; Compound A 1 mg/kg (Group 2), Day 7): 0.00 | Mean EAE score ([1]; Compound A 1 mg/kg (Group 2), Day 8): 0.00 | Mean EAE score ([1]; Compound A 1 mg/kg (Group 2), Day 9): 0.00 | Mean EAE score ([1]; Compound A 1 mg/kg (Group 2), Day 10): 0.00 | Mean EAE score ([1]; Compound A 1 mg/kg (Group 2), Day 11): 0.05 | Mean EAE score ([1]; Compound A 1 mg/kg (Group 2), Day 12): 0.18 | Mean EAE score ([1]; Compound A 1 mg/kg (Group 2), Day 13): 0.55 | Mean EAE score ([1]; Compound A 1 mg/kg (Group 2), Day 14): 0.95 | Mean EAE score ([1]; Compound A 1 mg/kg (Group 2), Day 15): 1.27 | Mean EAE score ([1]; Compound A 1 mg/kg (Group 2), Day 16): 1.45 | Mean EAE score ([1]; Compound A 1 mg/kg (Group 2), Day 17): 1.73 | Mean EAE score ([1]; Compound A 1 mg/kg (Group 2), Day 18): 1.68 | Mean EAE score ([1]; Compound A 1 mg/kg (Group 2), Day 19): 1.68 | Mean EAE score ([1]; Compound A 1 mg/kg (Group 2), Day 20): 1.55 | Mean EAE score ([1]; Compound A 1 mg/kg (Group 2), Day 21): 1.64 | Mean EAE score ([1]; Compound A 1 mg/kg (Group 2), Day 22): 1.32 | Mean EAE score ([1]; Compound A 1 mg/kg (Group 2), Day 23): 1.23 | Mean EAE score ([1]; Compound A 1 mg/kg (Group 2), Day 24): 1.23 | Mean EAE score ([1]; Compound A 1 mg/kg (Group 2), Day 25): 1.09 | Mean EAE score ([1]; Compound A 1 mg/kg (Group 2), Day 26): 1.14 | Mean EAE score ([1]; Compound A 1 mg/kg (Group 2), Day 27): 1.09 | Mean EAE score ([1]; Compound A 1 mg/kg (Group 2), Day 28): 1.05 | Incidence of EAE (%) ([1]; Compound A 3 mg/kg (Group 3)): 91.7% | Mean Day of Onset (SEM) ([1]; Compound A 3 mg/kg (Group 3)): 14.2 (0.4) Day | Mean End Score (SEM) ([1]; Compound A 3 mg/kg (Group 3)): 0.73 (0.26)** | Mean Maximum Score (SEM) ([1]; Compound A 3 mg/kg (Group 3)): 1.77 (0.23)*** | Median Day of Onset ([1]; Compound A 3 mg/kg (Group 3)): 14.0 days | Mean EAE score ([1]; Compound A 3 mg/kg (Group 3), Day 7): 0.00 | Mean EAE score ([1]; Compound A 3 mg/kg (Group 3), Day 8): 0.00 | Mean EAE score ([1]; Compound A 3 mg/kg (Group 3), Day 9): 0.00 | Mean EAE score ([1]; Compound A 3 mg/kg (Group 3), Day 10): 0.00 | Mean EAE score ([1]; Compound A 3 mg/kg (Group 3), Day 11): 0.00 | Mean EAE score ([1]; Compound A 3 mg/kg (Group 3), Day 12): 0.00 | Mean EAE score ([1]; Compound A 3 mg/kg (Group 3), Day 13): 0.29 | Mean EAE score ([1]; Compound A 3 mg/kg (Group 3), Day 14): 0.63 | Mean EAE score ([1]; Compound A 3 mg/kg (Group 3), Day 15): 0.88 | Mean EAE score ([1]; Compound A 3 mg/kg (Group 3), Day 16): 1.29 | Mean EAE score ([1]; Compound A 3 mg/kg (Group 3), Day 17): 1.67 | Mean EAE score ([1]; Compound A 3 mg/kg (Group 3), Day 18): 1.54 | Mean EAE score ([1]; Compound A 3 mg/kg (Group 3), Day 19): 1.18 | Mean EAE score ([1]; Compound A 3 mg/kg (Group 3), Day 20): 1.23 | Mean EAE score ([1]; Compound A 3 mg/kg (Group 3), Day 21): 1.18 | Mean EAE score ([1]; Compound A 3 mg/kg (Group 3), Day 22): 0.95 | Mean EAE score ([1]; Compound A 3 mg/kg (Group 3), Day 23): 0.91 | Mean EAE score ([1]; Compound A 3 mg/kg (Group 3), Day 24): 0.91 | Mean EAE score ([1]; Compound A 3 mg/kg (Group 3), Day 25): 0.95 | Mean EAE score ([1]; Compound A 3 mg/kg (Group 3), Day 26): 0.95 | Mean EAE score ([1]; Compound A 3 mg/kg (Group 3), Day 27): 0.95 | Mean EAE score ([1]; Compound A 3 mg/kg (Group 3), Day 28): 0.73 | Incidence of EAE (%) ([1]; Compound A 10 mg/kg (Group 4)): 83.3% | Mean Day of Onset (SEM) ([1]; Compound A 10 mg/kg (Group 4)): 13.4 (0.6) Day | Mean End Score (SEM) ([1]; Compound A 10 mg/kg (Group 4)): 0.29 (0.13)*** | Mean Maximum Score (SEM) ([1]; Compound A 10 mg/kg (Group 4)): 1.67 (0.28)*** | Median Day of Onset ([1]; Compound A 10 mg/kg (Group 4)): 13.0 days | Mean EAE score ([1]; Compound A 10 mg/kg (Group 4), Day 7): 0.00 | Mean EAE score ([1]; Compound A 10 mg/kg (Group 4), Day 8): 0.00 | Mean EAE score ([1]; Compound A 10 mg/kg (Group 4), Day 9): 0.00 | Mean EAE score ([1]; Compound A 10 mg/kg (Group 4), Day 10): 0.00 | Mean EAE score ([1]; Compound A 10 mg/kg (Group 4), Day 11): 0.04 | Mean EAE score ([1]; Compound A 10 mg/kg (Group 4), Day 12): 0.21 | Mean EAE score ([1]; Compound A 10 mg/kg (Group 4), Day 13): 0.83 | Mean EAE score ([1]; Compound A 10 mg/kg (Group 4), Day 14): 1.04 | Mean EAE score ([1]; Compound A 10 mg/kg (Group 4), Day 15): 1.33 | Mean EAE score ([1]; Compound A 10 mg/kg (Group 4), Day 16): 1.46 | Mean EAE score ([1]; Compound A 10 mg/kg (Group 4), Day 17): 1.46 | Mean EAE score ([1]; Compound A 10 mg/kg (Group 4), Day 18): 1.54 | Mean EAE score ([1]; Compound A 10 mg/kg (Group 4), Day 19): 1.21 | Mean EAE score ([1]; Compound A 10 mg/kg (Group 4), Day 20): 1.13 | Mean EAE score ([1]; Compound A 10 mg/kg (Group 4), Day 21): 1.17 | Mean EAE score ([1]; Compound A 10 mg/kg (Group 4), Day 22): 0.75 | Mean EAE score ([1]; Compound A 10 mg/kg (Group 4), Day 23): 0.71 | Mean EAE score ([1]; Compound A 10 mg/kg (Group 4), Day 24): 0.63 | Mean EAE score ([1]; Compound A 10 mg/kg (Group 4), Day 25): 0.46 | Mean EAE score ([1]; Compound A 10 mg/kg (Group 4), Day 26): 0.50 | Mean EAE score ([1]; Compound A 10 mg/kg (Group 4), Day 27): 0.46 | Mean EAE score ([1]; Compound A 10 mg/kg (Group 4), Day 28): 0.29 | Mean EAE score compared to positive control FTY720 ([1]; Day 28, 10 mg/kg): comparable mean EAE score | Day on which EAE scores peaked [1, 2]: ~17 days | Mean end EAE scores relative to vehicle [1, 2]: significantly reduced mean end scores | Mean day of onset of EAE compared with vehicle ([1]; all doses): similar | Total histology score (FIG. 26D) (renal fibrosis (UUO); UUO + Compound A (10 mg/kg) relative to sham treated animals): marked decrease in total histology score | Collagen fiber deposition clinical score (renal fibrosis (UUO); [3]): 1 (4×) and 2 (3×) and 3 | Glomerulosclerosis clinical score (renal fibrosis (UUO); [3]): 0 | Interstitial nephritis clinical score (renal fibrosis (UUO); [3]): 2 (4×) and 3 (4×) | Nephropathy clinical score (renal fibrosis (UUO); [3]): 1 and 2 (7×) | Total score (renal fibrosis (UUO); [3]): 4 and 7 (3×) and 5 (3×) and 8 | Clinical histopathology scores / histological indicators of fibrosis relative to UUO + vehicle (renal fibrosis (UUO); UUO rats, 10 mg/kg PO QD, 10 mg/kg): reduced levels of interstitial nephritis, collagen fiber deposition, and nephropathy, as well as total clinical scores; also recorded: reduced the severity of all histological indicators of fibrosis; also recorded: ameliorates clinical symptoms associated with UUO
